Measured values reported in the supplement of paper PMC7661543.
± gives the standard deviation of the averaged measurements.

Key:
Assay in all cases: relative cell number vs DMSO control (72 h) (% of DMSO); higher = less growth inhibition (more cells)
Details in all cases: sgRNA knockout: sgNT
[1] = tested on: BT-20
Method: (§1)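 QMAP-Seq: a pool of 5 breast cancer cell lines (ZR-75-1, SKBR3, HCC-38, MDA-MB-231, BT-20), each carrying 12 doxycycline-inducible Cas9 sgRNA perturbations (11 knockouts plus non-targeting sgNT), was treated with compounds for 72 h at four 10-fold doses (10 nM-10 uM or 1 nM-1 uM range). Barcodes were amplified and sequenced, and cell number was interpolated from 293T spike-in standard curves. The result is expressed as % of the median of DMSO wells. Two biological replicates.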

[2] = tested on: SKBR3
Method: as §1

[3] = tested on: ZR-75-1
Method: as §1

[4] = tested on: MDA-MB-231
Method: as §1

[5] = tested on: HCC-38
Method: as §1

SMILES | relative cell number ([1]; 1 nM) | relative cell number ([1]; 10 nM) | relative cell number ([1]; 100 nM) | relative cell number ([1]; 1000 nM) | relative cell number ([2]; 1 nM) | relative cell number ([2]; 10 nM) | relative cell number ([2]; 100 nM) | relative cell number ([2]; 1000 nM) | relative cell number ([3]; 1 nM) | relative cell number ([3]; 10 nM) | relative cell number ([3]; 100 nM) | relative cell number ([3]; 1000 nM) | relative cell number ([4]; 1 nM) | relative cell number ([4]; 10 nM) | relative cell number ([4]; 100 nM) | relative cell number ([4]; 1000 nM) | relative cell number ([5]; 1 nM) | relative cell number ([5]; 10 nM) | relative cell number ([5]; 100 nM) | relative cell number ([5]; 1000 nM) | relative cell number ([1]; 10000 nM) | relative cell number ([2]; 10000 nM) | relative cell number ([3]; 10000 nM) | relative cell number ([4]; 10000 nM) | relative cell number ([5]; 10000 nM)
CC(C)(C#N)c1cc(Cn2cncn2)cc(C(C)(C)C#N)c1 [Anastrozole] | 112 ± 1.8 | 103 ± 50 | 116 ± 12 | 114 ± 15 | 123 ± 23 | 90.3 ± 18 | 118 ± 17 | 103 ± 13 | 76.6 ± 1.4 | 151 ± 25 | 100 ± 3.4 | 120 ± 17 | 107 ± 8.8 | 110 ± 75 | 121 ± 17 | 115 ± 22 | 106 ± 9.5 | 116 ± 3.1 | 103 ± 5.8 | 115.2 ± 0.88 | – | – | – | – | –
CCN1CCN(c2ccc(Nc3cc(N(C)C(=O)Nc4c(Cl)c(OC)cc(OC)c4Cl)ncn3)cc2)CC1 [BGJ398] | – | 80.6 ± 10 | 104 ± 1.5 | 88.5 ± 15 | – | 99.1 ± 6.7 | 106 ± 32 | 67.6 ± 6.6 | – | 77.02 ± 0.32 | 116 ± 13 | 105 ± 14 | – | 81.7 ± 12 | 83.1 ± 16 | 116 ± 2.1 | – | 93.6 ± 16 | 66.73 ± 0.28 | 60.5 ± 4.7 | 82.8 ± 18 | 75 ± 18 | 78.1 ± 26 | 65.2 ± 12 | 58.5 ± 0.79
COC(=O)[C@]12CCC(C)(C)C[C@H]1[C@H]1C(=O)C=C3[C@@]4(C)C=C(C#N)C(=O)C(C)(C)[C@@H]4CC[C@@]3(C)[C@]1(C)CC2 [BardoxoloneMethyl] | – | 73.5 ± 19 | 66.2 ± 6.3 | 16.2 ± 4 | – | 100.4 ± 0.77 | 66.6 ± 13 | 7.42 ± 0.66 | – | 74.7 ± 11 | 49.3 ± 14 | 14.3 ± 2.1 | – | 109 ± 22 | 66.5 ± 37 | 16.4 ± 11 | – | 96 ± 7.2 | 99.93 ± 0.61 | 26.6 ± 3.4 | 4.97 ± 2.9 | 4.14 ± 0.45 | 5.42 ± 4.3 | 5.3 ± 1.9 | 5.24 ± 0.59
Cn1c(CCCC(=O)O)nc2cc(N(CCCl)CCCl)ccc21 [Bendamustine] | – | 90.6 ± 14 | 114 ± 25 | 112 ± 33 | – | 86.7 ± 9.2 | 115 ± 21 | 118 ± 21 | – | 82.4 ± 11 | 123 ± 6.9 | 63.7 ± 27 | – | 111 ± 13 | 123 ± 10 | 95.8 ± 17 | – | 104 ± 6 | 103 ± 1.1 | 109 ± 17 | 124 ± 14 | 109 ± 44 | 97.9 ± 9.2 | 127 ± 3.8 | 115 ± 4.3
C=C(C)[C@@H]1CC[C@]2(C(=O)O)CC[C@]3(C)[C@H](CC[C@@H]4[C@@]5(C)CC[C@H](O)C(C)(C)[C@@H]5CC[C@]43C)[C@@H]12 [BetulinicAcid] | – | 86.7 ± 12 | 78.6 ± 3.6 | 86.4 ± 13 | – | 76.3 ± 23 | 95 ± 13 | 86 ± 5.5 | – | 90.9 ± 11 | 97.1 ± 4.8 | 94.5 ± 43 | – | 74.3 ± 2.1 | 92.9 ± 11 | 69.8 ± 21 | – | 106 ± 10 | 82.2 ± 9.4 | 98 ± 32 | 108 ± 1.7 | 96.4 ± 11 | 110 ± 11 | 117 ± 24 | 96.4 ± 1.5
C=C(c1ccc(C(=O)O)cc1)c1cc2c(cc1C)C(C)(C)CCC2(C)C [Bexarotene] | – | 122 ± 11 | 119 ± 25 | 112 ± 33 | – | 107 ± 4.7 | 72.8 ± 16 | 71.6 ± 34 | – | 97.6 ± 34 | 78.4 ± 27 | 72.2 ± 19 | – | 146 ± 83 | 73.6 ± 3.8 | 95.3 ± 16 | – | 85.51 ± 0.16 | 90.4 ± 9 | 94.9 ± 8 | 137 ± 30 | 90 ± 11 | 70.3 ± 5.1 | 80.2 ± 31 | 108 ± 8.4
Cc1ccc2c(c1)C(=O)C1(O)CCN(c3ccccc3)C1=N2 (stereo not given) [Blebbistatin] | – | 115.9 ± 0.31 | 128 ± 6.2 | 130 ± 4 | – | 114 ± 20 | 111 ± 16 | 126 ± 11 | – | 108 ± 9.9 | 112 ± 9.8 | 98.1 ± 39 | – | 110 ± 16 | 138.4 ± 0.51 | 144 ± 49 | – | 125 ± 10 | 118 ± 4.2 | 115 ± 13 | 125 ± 46 | 96.52 ± 0.14 | 84.1 ± 7.3 | 97 ± 12 | 69.5 ± 7.5
CC(C)C[C@H](NC(=O)[C@H](Cc1ccccc1)NC(=O)c1cnccn1)B(O)O [Bortezomib] | 71.71 ± 0.27 | 74.6 ± 13 | 24.7 ± 9.2 | 16.7 ± 2.3 | 94.4 ± 13 | 34.3 ± 8 | 14.2 ± 4.1 | 9.59 ± 4 | 72 ± 20 | 80 ± 17 | 17.2 ± 3.5 | 13.4 ± 2.8 | 86.7 ± 9.3 | 65.2 ± 19 | 6.68 ± 5 | 13.2 ± 6.6 | 91.8 ± 5.8 | 36.8 ± 2.4 | 4.58 ± 0.053 | 7.2 ± 1.2 | – | – | – | – | –
C[C@H]1CCC/C=C/[C@@H]2C[C@H](O)C[C@H]2[C@H](O)/C=C/C(=O)O1 [BrefeldinA] | – | 84.9 ± 25 | 25.6 ± 6.2 | 31.1 ± 3.5 | – | 89.9 ± 43 | 17.7 ± 11 | 5.96 ± 2.5 | – | 86.8 ± 14 | 18.7 ± 2.6 | 8.03 ± 3.4 | – | 108 ± 22 | 14.1 ± 7.9 | 7.55 ± 2.6 | – | 92.1 ± 16 | 54.8 ± 7.7 | 35.3 ± 11 | 31.5 ± 9.4 | 6.07 ± 0.93 | 5.82 ± 3.4 | 9.31 ± 2.6 | 23.6 ± 7.5
Cc1cc2c(F)c(Oc3ncnn4cc(OC[C@@H](C)O)c(C)c34)ccc2[nH]1 [Brivanib] | – | 119 ± 35 | 78.5 ± 1.6 | 109 ± 18 | – | 112 ± 6.1 | 61.5 ± 12 | 82.4 ± 11 | – | 86.5 ± 18 | 66.1 ± 24 | 111 ± 19 | – | 107 ± 31 | 106 ± 25 | 122 ± 9.6 | – | 96.9 ± 6.4 | 84.3 ± 9.9 | 96.7 ± 2.2 | 93.9 ± 4 | 60.9 ± 28 | 53.5 ± 20 | 58.7 ± 9.5 | 84.119 ± 0.073
CC[C@H](Nc1ncnc2[nH]cnc12)c1nc2cccc(F)c2c(=O)n1-c1ccccc1 [CAL101] | – | 96.9 ± 17 | 97.88 ± 0.52 | 88.6 ± 25 | – | 77.4 ± 19 | 91.3 ± 18 | 87.3 ± 49 | – | 76.6 ± 14 | 95.6 ± 7.7 | 84.5 ± 3.2 | – | 122 ± 4.8 | 68.4 ± 19 | 118 ± 38 | – | 87.5 ± 13 | 96.1 ± 14 | 86.7 ± 14 | 88.8 ± 26 | 84.2 ± 3.7 | 72 ± 15 | 110 ± 9.4 | 83.8 ± 32
COc1cc2nccc(Oc3ccc(NC(=O)C4(C(=O)Nc5ccc(F)cc5)CC4)cc3)c2cc1OC [Cabozantinib] | – | 110 ± 3.4 | 98.3 ± 13 | 94.5 ± 5 | – | 128 ± 10 | 130 ± 11 | 82.9 ± 26 | – | 132 ± 14 | 102 ± 2.8 | 111 ± 40 | – | 103 ± 8.6 | 88.2 ± 3.7 | 100 ± 3.8 | – | 87.7 ± 22 | 104 ± 2.3 | 97.8 ± 2.8 | 49.8 ± 18 | 25.8 ± 17 | 28.3 ± 19 | 36.7 ± 24 | 61.9 ± 9.7
